The values that follow are results of earlier work, collected in US10632087B2, “Famciclovir and meloxicam combination therapy for functional somatic syndromes” (INNOVATIVE MED CONCEPTS, LLC., priority 2012, dated 2020).

The test system of the series is fibromyalgia patients. The conditions noted are these: valacyclovir alone; not recommended as therapy for fibromyalgia.

Take `CC(C)[C@H](N)C(=O)OCCOCn1cnc2c(=O)[nH]c(N)nc21` [valacyclovir]: the “treatment of fibromyalgia patients” value is reported as “not successful”.
